tested on: Aβ42; test: Cellular assay for inhibition of Aβ1-42 production (H4 APP751 SWE clone 8.20); format: cell-based; details: 19 h, H4 APP751 SWE clone 8.20 cells, 19 h incubation; read-out: Activity Rating (Aβ42 cellular IC50), class symbol
Description: Cellular Assays for Inhibition of Aβ1-40 and Aβ1-42 Production
H4 cells stably transfected with APP751 containing the Swedish mutation (H4 APP751 SWE clone 8.20, developed at BMS) were maintained in log phase through twice weekly passage at a 1:20 split. […] Following incubation for 19 h in 5% CO2 at 37° C., plates were briefly centrifuged (1000 rpm, 5 min). A 10 μl aliquot from each well was transferred to a second assay plate (Costar 3709) for Aβ40 measurements. Antibody cocktails were freshly prepared by dilution into 40 mM Tris-HCl (pH 7.4) with 0.2% BSA and added to assay plates. For Aβ42 measurements, antibodies specific for the Aβ42 neoepitope (565, developed at BMS; conjugated to the Wallac reagent (Perkin Elmer)) and the N-terminal sequence of Aβ peptide (26D6, developed at SIBIA; conjugated to APC (Perkin Elmer)) were mixed and 20 μl of the mixture was added to each well of the incubated cell plate yielding a final concentration of 0.8 ng/well 565 and 75 ng/well 26D6. For the Aβ40 measurements, antibodies specific for the Aβ40 neoepitope (TSD, developed at BMS; conjugated to the Wallac reagent (Perkin Elmer)) and 26D6 as described above were mixed and 20 μl of the mixture was added to the 10 μl aliquots which had been removed previously from the cell plate yielding a final concentration of 1.6 ng/well TSD and 17.5 ng/well 26D6. Assay plates containing antibodies were sealed with aluminum foil and incubated overnight at 4° C. Signal was determined using a Viewlux counter (Perkin Elmer) and IC50 values determined using curve fitting in CurveMaster (Excel Fit based).

| Compound | IC50 [nM] |
| --- | --- |
| CN1CCCOc2cc(ccc2C#N)Nc2nc3c(c1n2)CCC3c1ccc(F)cc1F (stereo not shown) [Example 35A, 7-cyano-17-(2,4-difluorophenyl)-13-methyl-11,12,13,15,16,17-hexahydro-10H-14,2-(azeno)-8,4-(metheno)cyclopenta[g][1,5,9,11]oxatriazacyclohexadecine] | 10 to 100 |
| N#Cc1ccc2cc1OCCCCNc1nc(nc3c1CCC3c1ccccc1)N2 (stereo not shown) [Example 23A, 7-cyano-18-phenyl-10,11,12,13,14,16,17,18-octahydro-15,2-(azeno)-8,4-(metheno)cyclopenta[h][1,6,10,12]oxatriazacycloheptadecine] | 10 to 100 |
| CN1CCCCOc2cc(ccc2-n2cnc(Cl)c2)Nc2nc3c(c1n2)CCC3c1ccccc1 (stereo not shown) [Example 13A, 7-(4-chloro-1H-imidazol-1-yl)-14-methyl-18-phenyl-10,11,12,13,14,16,17,18-octahydro-15,2-(azeno)-8,4-(metheno)cyclopenta[h][1,6,10,12]oxatriazacycloheptadecine] | < 10 |
| CN1CCCOc2cc(ccc2-n2cnc(Cl)c2)Nc2nc3c(c1n2)CCC3c1ccccc1 (stereo not shown) [Example 10A, 7-(4-chloro-1H-imidazol-1-yl)-13-methyl-17-phenyl-11,12,13,15,16,17-hexahydro-10H-14,2-(azeno)-8,4-(metheno)cyclopenta[g][1,5,9,11]oxatriazacyclohexadecine] | 10 to 100 |

Other lines, results leading:

| IC50 [nM] | Compound |
| --- | --- |
| 10 to 100 | Cc1ncn(-c2ccc3cc2OCCCN(C)c2nc(nc4c2CCC4c2ccccc2)N3)n1 (stereo not shown) [Example 60B, 13-methyl-7-(3-methyl-1H-1,2,4-triazol-1-yl)-17-phenyl-11,12,13,15,16,17-hexahydro-10H-14,2-(azeno)-8,4-(metheno)cyclopenta[g][1,5,9,11]oxatriazacyclohexadecine] |
| 10 to 100 | Cc1ncn(-c2ccc3cc2OC/C=C\CN(C)c2nc(nc4c2CCC4c2ccc(F)cc2F)N3)n1 (stereo not shown) [Example 57B, (11Z)-18-(2,4-difluorophenyl)-14-methyl-7-(3-methyl-1H-1,2,4-triazol-1-yl)-10,13,14,16,17,18-hexahydro-15,2-(azeno)-8,4-(metheno)cyclopenta[h][1,6,10,12]oxatriazacycloheptadecine] |
| 10 to 100 | Cc1ncn(-c2ccc3cc2OCCCCNc2nc(nc4c2CCC4c2ccc(F)cc2F)N3)n1 (stereo not shown) [Example 64B, 18-(2,4-difluorophenyl)-7-(3-methyl-1H-1,2,4-triazol-1-yl)-10,11,12,13,14,16,17,18-octahydro-15,2-(azeno)-8,4-(metheno)cyclopenta[h][1,6,10,12]oxatriazacycloheptadecine] |

same assay, conditions: 19 h, H4 APP751 SWE clone 8.20 cells, 19 h incubation; unit inferred; read-out: Activity Rating (Aβ42 cellular IC50), numeric value

| IC50 [nM] | Compound |
| --- | --- |
| 26 | CN1CCCCOc2cc(ccc2-n2cnc(Cl)c2)Nc2nc3c(c1n2)CCC3c1ccccc1 (stereo not shown) [Example 13B, 7-(4-chloro-1H-imidazol-1-yl)-14-methyl-18-phenyl-10,11,12,13,14,16,17,18-octahydro-15,2-(azeno)-8,4-(metheno)cyclopenta[h][1,6,10,12]oxatriazacycloheptadecine] |
| 3.8 | Clc1cn(-c2ccc3cc2OCCCCCNc2nc(nc4c2CCC4c2ccccc2)N3)cn1 (stereo not shown) [Example 11A, 7-(4-chloro-1H-imidazol-1-yl)-19-phenyl-3,10,11,12,13,14,15,17,18,19-decahydro-2,16-(azeno)-8,4-(metheno)cyclopenta[f][1,7,9,13]oxatriazacyclooctadecine] |
| 8.8 | CC1C/C=C/COc2cc(ccc2-n2cnc(Cl)c2)Nc2nc(c3c(n2)C(c2ccccc2)CC3)N1 (stereo not shown) [Example 7A, (11E)-7-(4-chloro-1H-imidazol-1-yl)-14-methyl-19-phenyl-3,10,13,14,15,17,18,19-octahydro-2,16-(azeno)-8,4-(metheno)cyclopenta[j][1,7,9,13]oxatriazacyclooctadecine] |
| 4.1 | Cc1ncn(-c2ccc3cc2OCCCCN(C)c2nc(nc4c2CCC4c2ccc(F)cc2F)N3)n1 (stereo not shown) [Example 61A, 18-(2,4-difluorophenyl)-14-methyl-7-(3-methyl-1H-1,2,4-triazol-1-yl)-10,11,12,13,14,16,17,18-octahydro-15,2-(azeno)-8,4-(metheno)cyclopenta[h][1,6,10,12]oxatriazacycloheptadecine] |

same assay, conditions: H4 APP751 SWE clone 8.20 cells, 19 h incubation; read-out: Activity Rating (Aβ42 cellular IC50), class symbol

| Compound | IC50 [nM] |
| --- | --- |
| N#Cc1ccc2cc1OCCNCCNc1nc(nc3c1CCC3c1ccc(F)cc1)N2 (single isomer, unassigned) [Example 26A, 7-cyano-19-(4-fluorophenyl)-11,12,13,14,15,17,18,19-octahydro-10H-16,2-(azeno)-8,4-(metheno)cyclopenta[i][1,4,7,11,13]oxatetraazacyclooctadecine] | 10 to 100 |
| N#Cc1ccc2cc1OC/C=C/CCc1nc(nc3c1CCC3c1ccccc1)N2 (stereo not shown) [Example 37B, (11E)-7-cyano-18-phenyl-10,13,14,16,17,18-hexahydro-15,2-(azeno)-8,4-(metheno)cyclopenta[h][1,10,12]oxadiazacycloheptadecine] | 10 to 100 |
| Fc1ccc(C2CCc3c4nc(nc32)Nc2ccc(-n3cnc(Cl)c3)c(c2)OCC=CCN4)c(F)c1 (stereo not shown) [Example 15A, (11E)-7-(4-chloro-1H-imidazol-1-yl)-18-(2,4-difluorophenyl)-10,13,14,16,17,18-hexahydro-15,2-(azeno)-8,4-(metheno)cyclopenta[h][1,6,10,12]oxatriazacycloheptadecine] | < 10 |
| Cc1ncnn1-c1ccc2cc1OCC=CCNc1nc(nc3c1CCC3c1ccccc1)N2 (stereo not shown) [Example 43A, (11E)-7-(5-methyl-1H-1,2,4-triazol-1-yl)-18-phenyl-10,13,14,16,17,18-hexahydro-15,2-(azeno)-8,4-(metheno)cyclopenta[h][1,6,10,12]oxatriazacycloheptadecine] | < 10 |
| CN1CC=CCOc2cc(ccc2C#N)Nc2nc3c(c1n2)CCC3c1ccccc1 (stereo not shown) [Example 29B, (11Z)-7-cyano-14-methyl-18-phenyl-10,13,14,16,17,18-hexahydro-15,2-(azeno)-8,4-(metheno)cyclopenta[h][1,6,10,12]oxatriazacycloheptadecine] | 100 to 1000 |

Next, values leading:

| IC50 [nM] | Compound |
| --- | --- |
| 10 to 100 | Cc1ncn(-c2ccc3cc2OCCCCNc2nc(nc4c2CN(C)CC4c2ccc(F)cc2)N3)n1 (racemic) [Example 70A, 19-(4-fluorophenyl)-17-methyl-7-(3-methyl-1H-1,2,4-triazol-1-yl)-11,12,13,14,16,17,18,19-octahydro-10H-15,2-(azeno)-8,4-(metheno)pyrido[3,4-h][1,6,10,12]oxatriazacycloheptadecine] |
| < 10 | Cc1ncn(-c2ccc3cc2OCCCCNc2nc(nc4c2CCC4c2ccccc2)N3)n1 (stereo not shown) [Example 49A, 7-(3-methyl-1H-1,2,4-triazol-1-yl)-18-phenyl-10,11,12,13,14,16,17,18-octahydro-15,2-(azeno)-8,4-(metheno)cyclopenta[h][1,6,10,12]oxatriazacycloheptadecine] |
| < 10 | (11Z)-7-(3-methyl-1H-1,2,4-triazol-1-yl)-18-phenyl-10,13,14,16,17,18-hexahydro-15,2-(azeno)-8,4-(metheno)cyclopenta[h][1,10,12]oxadiazacycloheptadecine [Example 58A] |
| 100 to 1000 | (11Z)-7-cyano-18-phenyl-10,13,14,16,17,18-hexahydro-15,2-(azeno)-8,4-(metheno)cyclopenta[h][1,10,12]oxadiazacycloheptadecine [Example 36A] |
| < 10 | Cc1ncn(-c2ccc3cc2OCC(O)CCNc2nc(nc4c2CCC4c2ccc(F)cc2)N3)n1 (single isomer, unassigned) [Example 72A, 18-(4-fluorophenyl)-7-(3-methyl-1H-1,2,4-triazol-1-yl)-10,11,12,13,14,16,17,18-octahydro-15,2-(azeno)-8,4-(metheno)cyclopenta[h][1,6,10,12]oxatriazacycloheptadecin-11(3H)-ol] |

same assay, conditions: H4 APP751 SWE clone 8.20 cells, 19 h incubation; unit inferred; read-out: Activity Rating (Aβ42 cellular IC50), numeric value

| Compound | IC50 [nM] |
| --- | --- |
| CN1CCCCOc2cc(ccc2C#N)Nc2nc3c(c1n2)CCC3c1ccccc1 (single isomer, unassigned) [Example 34A, 7-cyano-14-methyl-18-phenyl-10,11,12,13,14,16,17,18-octahydro-15,2-(azeno)-8,4-(metheno)cyclopenta[h][1,6,10,12]oxatriazacycloheptadecine] | 21 |
| Cc1ncnn1-c1ccc2cc1OCC=CCNc1nc(nc3c1CCC3c1ccccc1)N2 (stereo not shown) [Example 42A, (11Z)-7-(5-methyl-1H-1,2,4-triazol-1-yl)-18-phenyl-10,13,14,16,17,18-hexahydro-15,2-(azeno)-8,4-(metheno)cyclopenta[h][1,6,10,12]oxatriazacycloheptadecine] | 6.6 |

Results, then the compound that gave them:

| IC50 [nM] | Compound |
| --- | --- |
| 17 | (11Z)-18-(2,4-difluorophenyl)-7-(5-methyl-1H-1,2,4-triazol-1-yl)-10,13,14,16,17,18-hexahydro-15,2-(azeno)-8,4-(metheno)cyclopenta[h][1,6,10,12]oxatriazacycloheptadecine [Example 53B] |
| 53 | (11E)-7-cyano-18-(2,4-difluorophenyl)-10,13,14,16,17,18-hexahydro-15,2-(azeno)-8,4-(metheno)cyclopenta[h][1,6,10,12]oxatriazacycloheptadecine [Example 25B] |

Source: US8637523B2, “Compounds for the reduction of beta-amyloid production” (Bristol-Myers Squibb Company, priority 2010, dated 2014)
